# Laboratory results taken from US20260285866A1, “MODULATORS OF TRPML, THEIR COMPOSITIONS AND METHODS OF USE” (Caraway Therapeutics, Inc., priority 2024, published 2026).
# What was measured:
# TRPMLs = conditions: high concentrations needed; background statement; cited from earlier work
# Human TRPML2 = molecular target: T1, Human TRPML2 (Homo sapiens, UniProt Q8IZK6); experiment: Fluorescent TRPML2 assay (as for TRPML1); type: cell-based; conditions: fluorescent calcium assay as for TRPML1, TRPML2 subtype
# T1 construct: expressed in transfected cells
# T1 sequence (Q8IZK6 1-566): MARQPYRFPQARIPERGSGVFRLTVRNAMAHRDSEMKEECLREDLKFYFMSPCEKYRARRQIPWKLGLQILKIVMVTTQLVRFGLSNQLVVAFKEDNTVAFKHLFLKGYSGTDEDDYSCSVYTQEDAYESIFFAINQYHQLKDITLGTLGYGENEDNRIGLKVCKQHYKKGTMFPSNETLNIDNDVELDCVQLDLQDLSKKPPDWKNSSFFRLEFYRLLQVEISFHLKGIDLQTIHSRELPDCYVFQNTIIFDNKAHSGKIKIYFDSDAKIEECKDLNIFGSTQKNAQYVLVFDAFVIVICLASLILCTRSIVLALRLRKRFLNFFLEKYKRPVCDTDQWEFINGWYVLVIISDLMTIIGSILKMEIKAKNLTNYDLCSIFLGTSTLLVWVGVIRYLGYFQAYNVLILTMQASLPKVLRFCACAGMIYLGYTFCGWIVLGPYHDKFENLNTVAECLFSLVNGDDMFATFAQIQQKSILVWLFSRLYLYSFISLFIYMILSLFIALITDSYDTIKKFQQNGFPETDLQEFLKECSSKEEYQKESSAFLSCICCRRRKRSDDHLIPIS
# Experimental: HEK-293 Trex cells were stably transfected with a construct consisting of the human coding sequence for TRPML1 cloned into the tet-inducible plasmid pCDNA5 T/O. Mutations were introduced into the TRPML1 sequence to facilitate expression on the cell surface (Silvia Vergarajauregui, Rosa Puertollano Traffic. 2006 March; 7(3): 337-353). Briefly, the cells are cultured in 150 mm round tissue culture dishes containing 20 mL of media. The day before the assay the cells are rinsed with DPBS-Ca-Mg and then treated briefly with Trypsin-EDTA. The Trypsin-EDTA is diluted with growth media, and cells are counted. 38×10^6 cells are re-plated into 150 mm round tissue culture dishes in media containing 0.5 μg/mL doxycycline to induce expression of hTRPML1.
# The day of the experiment cells are lifted from the plates as above and collected by centrifugation. The cells are then suspended in dye loading buffer consisting of Ringer's solution supplemented with 0.1% Pluronic Acid and 1 micromolar Fluo4-AM dye. Cells are loaded for ~60 minutes in the dark with occasional mixing. The cells are collected by centrifugation, the loading media aspirated, and the cells resuspended in 25 mL Ringer's solution and incubated ~60 minutes in the dark. The cells are again collected by centrifugation, rinsed in Ringer's Solution and resuspended to 0.2×10^6 cells/mL in modified Ringer's solution containing 10 mM calcium.
# Compounds are dissolved to a concentration of 10 millimolar with DMSO. Compound plates are created by dispensing compounds into 384 well black wall clear bottom plates (Greiner 781091). Positive and negative controls are included on each plate. Typically, different amounts of each compound are tested ranging from 100 nanoMoles (20 micromolar final concentration) decreasing in half-log steps to 31 picoMoles (6 nanomolar final concentration). Each concentration is typically tested in triplicate.
# 50 microliters of dye-loaded cells are dispensed into each well of the compound assay plate created above. The fluorescence in each well is then determined with an excitation wavelength of 480 nm and an emission wavelength of 540 nm using either a Molecular Devices SpectraMax multimode plate reader or a Hamamatsu FDSS/uCell plate imager.
# The resulting fluorescence for each well is exported as an ascii file and loaded into our LIMS for analysis. The percent activity of each compound at each concentration is determined by comparison to the positive and negative control wells included in each plate.
# Assays for TRPML2 and TRPML3 were performed as above for TRPML1, by substituting the appropriate TRPML2 or TRPML3 subtype for the TRPML1.
# EC50 values were calculated using a non-linear regression of Prism. In the table, “A” indicates an EC50 of less than 100 nM, “B” indicates an EC50 range from 100 nM to 500 nM: “C” indicates an EC50 range from 500 nM to 2 μM; and “D” indicates an EC50 greater than 2 μM.
# Human TRPML1 = Human TRPML1 (Homo sapiens, UniProt Q9GZU1, L15A/L16A/L577A/L578A); experiment: Fluorescent TRPML1 assay (Fluo4-AM, HEK-293 Trex cells expressing hTRPML1); type: cell-based; conditions: fluorescent calcium assay, doxycycline-induced hTRPML1
# Chain of Human TRPML1 (Q9GZU1 whole entry L15A/L16A/L577A/L578A): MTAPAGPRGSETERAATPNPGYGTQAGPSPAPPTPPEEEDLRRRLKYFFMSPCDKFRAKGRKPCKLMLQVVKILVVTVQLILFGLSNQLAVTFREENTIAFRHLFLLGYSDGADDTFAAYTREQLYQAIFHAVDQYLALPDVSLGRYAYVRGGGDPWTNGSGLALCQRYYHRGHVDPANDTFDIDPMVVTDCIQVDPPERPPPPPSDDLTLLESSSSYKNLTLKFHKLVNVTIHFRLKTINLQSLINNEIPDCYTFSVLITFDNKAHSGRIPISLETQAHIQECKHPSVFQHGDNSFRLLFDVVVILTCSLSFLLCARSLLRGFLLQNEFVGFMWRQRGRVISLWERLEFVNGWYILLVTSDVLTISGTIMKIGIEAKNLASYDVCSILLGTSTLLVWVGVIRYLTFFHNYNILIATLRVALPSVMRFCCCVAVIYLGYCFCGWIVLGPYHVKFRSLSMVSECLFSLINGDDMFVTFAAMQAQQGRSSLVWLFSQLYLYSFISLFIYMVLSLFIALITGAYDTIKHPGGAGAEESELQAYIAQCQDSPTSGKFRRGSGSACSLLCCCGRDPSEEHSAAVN
# In short: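 Doxycycline-induced (0.5 μg/mL) HEK-293 Trex cells stably expressing surface-targeted mutant hTRPML1, loaded with 1 μM Fluo4-AM, then suspended in modified Ringer's with 10 mM calcium and added to compounds (20 μM to 6 nM final, half-log steps, triplicate). Fluorescence read at ex 480/em 540; percent activity versus plate controls, EC50 by non-linear regression.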
# Human TRPML3 = molecular target: T2, Human TRPML3 (Homo sapiens, UniProt Q8TDD5); experiment: Fluorescent TRPML3 assay (as for TRPML1); type: cell-based; conditions: fluorescent calcium assay as for TRPML1, TRPML3 subtype
# T2 construct: expressed in transfected cells
# T2 sequence (Q8TDD5 1-553): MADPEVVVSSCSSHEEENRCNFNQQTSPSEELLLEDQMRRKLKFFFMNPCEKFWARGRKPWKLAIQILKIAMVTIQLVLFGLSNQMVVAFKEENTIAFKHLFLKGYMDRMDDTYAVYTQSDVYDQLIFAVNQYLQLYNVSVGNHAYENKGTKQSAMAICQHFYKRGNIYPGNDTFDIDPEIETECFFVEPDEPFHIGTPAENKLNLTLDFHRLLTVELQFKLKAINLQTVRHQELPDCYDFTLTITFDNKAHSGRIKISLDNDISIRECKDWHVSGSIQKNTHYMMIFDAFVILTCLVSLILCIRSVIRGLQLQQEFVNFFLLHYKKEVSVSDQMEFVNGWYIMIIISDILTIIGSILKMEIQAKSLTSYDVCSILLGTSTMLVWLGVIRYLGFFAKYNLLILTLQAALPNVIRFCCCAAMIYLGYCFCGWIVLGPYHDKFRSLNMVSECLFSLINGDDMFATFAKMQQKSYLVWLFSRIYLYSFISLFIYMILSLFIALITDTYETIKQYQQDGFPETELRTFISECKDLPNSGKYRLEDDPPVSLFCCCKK
# In short: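 Tet-inducible HEK-293 Trex cells expressing human TRPML2 or TRPML3, induced overnight with 0.5 μg/mL doxycycline, loaded with 1 μM Fluo4-AM and suspended in Ringer's solution with 10 mM calcium. Compounds tested in triplicate from 20 μM to 6 nM final in half-log steps; fluorescence at 480/540 nm. EC50 by non-linear regression, binned A–D.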
Structure (SMILES),concentration needed to effectively activate TRPMLs (TRPMLs),EC50 (Human TRPML2) [nM],EC50 (Human TRPML1) [nM],EC50 (Human TRPML3) [nM]
"CC1CC(C)(C)N(C(=O)CN2C(=O)c3ccccc3C2=O)c2ccccc21 (stereo not shown) [ML-SA1, Mucolipin Synthetic Agonist I]",~ 10 μM,–,–,–
"CCOC(C)(C)C(=O)N1C[C@H](C)N(c2ncnc3c2c(-c2ccccc2)cn3-c2cc(C#N)ccn2)C[C@H]1C [Compound 170, 2-(4-((2S,5R)-4-(2-ethoxy-2-methylpropanoyl)-2,5-dimethylpiperazin-1-yl)-5-phenyl-7H-pyrrolo[2,3-d]pyrimidin-7-yl)isonicotinonitrile]",–,100 to 500,< 100,< 100
"C[C@@H]1CN(c2ncnc3c2c(-c2ccccc2)cn3-c2cc(C#N)ccn2)[C@@H](C)CN1C(=O)CC(O)(C(F)(F)F)C(F)(F)F [Compound 161, 2-(4-((2S,5R)-2,5-dimethyl-4-(4,4,4-trifluoro-3-hydroxy-3-(trifluoromethyl)butanoyl)piperazin-1-yl)-5-phenyl-7H-pyrrolo[2,3-d]pyrimidin-7-yl)isonicotinonitrile]",–,500 to 2000,100 to 500,< 100
"C[C@@H]1CN(c2ncnc3c2c(-c2ccncc2)cn3-c2cc(C#N)ccn2)[C@@H](C)CN1C(=O)C1(O)CCCCC1 [Compound 151, 2-(4-((2S,5R)-4-(1-hydroxycyclohexane-1-carbonyl)-2,5-dimethylpiperazin-1-yl)-5-(pyridin-4-yl)-7H-pyrrolo[2,3-d]pyrimidin-7-yl)isonicotinonitrile]",–,500 to 2000,< 100,100 to 500
"CCC(O)(CC)C(=O)N1C[C@H](C)N(c2ncnc3c2c(-c2ccccc2)cn3-c2cc(C#N)ccn2)C[C@H]1C [Compound 108, 2-(4-((2S,5R)-4-(2-ethyl-2-hydroxybutanoyl)-2,5-dimethylpiperazin-1-yl)-5-phenyl-7H-pyrrolo[2,3-d]pyrimidin-7-yl)isonicotinonitrile]",–,500 to 2000,< 100,100 to 500
"C[C@@H]1CN(c2ncnc3c2c(-n2cccn2)cn3-c2cc(C#N)ccn2)[C@@H](C)CN1C(=O)C(C)(C)O [Compound 133, 2-(4-((2S,5R)-4-(2-hydroxy-2-methylpropanoyl)-2,5-dimethylpiperazin-1-yl)-5-(1H-pyrazol-1-yl)-7H-pyrrolo[2,3-d]pyrimidin-7-yl)isonicotinonitrile]",–,> 2000,500 to 2000,500 to 2000
"C[C@@H]1CN(c2ncnc3c2c(-c2ccccc2F)cn3-c2cc(C#N)ccn2)[C@@H](C)CN1C(=O)C1(O)CCCCC1 [Compound 122, 2-(5-(2-fluorophenyl)-4-((2S,5R)-4-(1-hydroxycyclohexane-1-carbonyl)-2,5-dimethylpiperazin-1-yl)-7H-pyrrolo[2,3-d]pyrimidin-7-yl)isonicotinonitrile]",–,500 to 2000,< 100,< 100
"C[C@@H]1CN(c2ncnc3c2c(-c2ccncc2F)cn3-c2cc(C#N)ccn2)[C@@H](C)CN1C(=O)C(C)(C)O [Compound 146, 2-(5-(3-fluoropyridin-4-yl)-4-((2S,5R)-4-(2-hydroxy-2-methylpropanoyl)-2,5-dimethylpiperazin-1-yl)-7H-pyrrolo[2,3-d]pyrimidin-7-yl)isonicotinonitrile]",–,> 2000,100 to 500,500 to 2000
"CC[C@H]1CN(C(=O)C(C)(C)O)[C@H](C)CN1c1ncnc2c1c(-c1ccccc1)cn2-c1cc(C#N)ccn1 [Compound 129, 2-(4-((2S,5R)-2-ethyl-4-(2-hydroxy-2-methylpropanoyl)-5-methylpiperazin-1-yl)-5-phenyl-7H-pyrrolo[2,3-d]pyrimidin-7-yl)isonicotinonitrile]",–,> 2000,< 100,100 to 500
"C[C@@H]1CN(c2ncnc3c2c(-c2ccccc2F)cn3-c2cc(C#N)ccn2)[C@@H](C)CN1C(=O)C1(O)CCCC1 [Compound 121, 2-(5-(2-fluorophenyl)-4-((2S,5R)-4-(1-hydroxycyclopentane-1-carbonyl)-2,5-dimethylpiperazin-1-yl)-7H-pyrrolo[2,3-d]pyrimidin-7-yl)isonicotinonitrile]",–,500 to 2000,< 100,< 100
"COC1(C(=O)N2C[C@H](C)N(c3ncnc4c3c(-c3ccccc3F)cn4-c3cc(C#N)ccn3)C[C@H]2C)COC1 [Compound 166, 2-(5-(2-fluorophenyl)-4-((2S,5R)-4-(3-methoxyoxetane-3-carbonyl)-2,5-dimethylpiperazin-1-yl)-7H-pyrrolo[2,3-d]pyrimidin-7-yl)isonicotinonitrile]",–,500 to 2000,< 100,< 100
